Test results from ChEMBL document CHEMBL1136782, “Further studies on 2,4-diamino-5-(2',5'-disubstituted benzyl)pyrimidines as potent and selective inhibitors of dihydrofolate reductases from three major opportunistic pathogens of AIDS” (J Med Chem, 2003).
pIC50: −log10 of the molar value.

Key:
[1] = molecular target: T1, Dihydrofolate reductase (Mycobacterium avium, UniProt O30463)
T1 sequence (O30463 whole entry): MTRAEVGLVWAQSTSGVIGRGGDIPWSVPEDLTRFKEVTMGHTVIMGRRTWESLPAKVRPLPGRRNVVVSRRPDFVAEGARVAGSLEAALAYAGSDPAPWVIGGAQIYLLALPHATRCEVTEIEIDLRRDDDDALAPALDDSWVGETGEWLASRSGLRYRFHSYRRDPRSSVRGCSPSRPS
Description: Inhibition of Dihydrohydrofolate reductase(DHFR) of Mycobacterium avium

[2] = Relative affinity for Dihydrofolate reductase of rat liver and Mycobacterium avium
[3] = molecular target: T2, Bifunctional dihydrofolate reductase-thymidylate synthase (Toxoplasma gondii, UniProt Q07422)
T2 sequence (Q07422 whole entry): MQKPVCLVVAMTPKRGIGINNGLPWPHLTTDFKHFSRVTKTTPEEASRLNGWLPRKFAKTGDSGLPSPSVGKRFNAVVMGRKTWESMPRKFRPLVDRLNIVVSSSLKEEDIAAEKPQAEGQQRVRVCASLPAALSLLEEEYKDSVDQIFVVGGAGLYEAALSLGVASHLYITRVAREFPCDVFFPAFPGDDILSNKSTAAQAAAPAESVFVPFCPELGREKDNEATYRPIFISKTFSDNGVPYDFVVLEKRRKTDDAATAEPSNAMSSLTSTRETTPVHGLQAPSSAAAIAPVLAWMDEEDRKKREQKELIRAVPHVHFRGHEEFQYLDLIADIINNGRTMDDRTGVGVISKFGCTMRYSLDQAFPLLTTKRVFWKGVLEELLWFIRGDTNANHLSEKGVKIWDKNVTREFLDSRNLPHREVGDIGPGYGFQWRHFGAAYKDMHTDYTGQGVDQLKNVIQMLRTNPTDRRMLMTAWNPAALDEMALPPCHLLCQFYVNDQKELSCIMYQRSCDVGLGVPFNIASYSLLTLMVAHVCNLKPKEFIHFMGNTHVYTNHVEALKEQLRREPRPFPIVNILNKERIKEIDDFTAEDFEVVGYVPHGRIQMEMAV
Description: Inhibitory activity against Dihydrohydrofolate reductase(DHFR) of Toxoplasma gondii

[4] = molecular target: T3, Dihydrofolate reductase (Rattus norvegicus, UniProt Q920D2)
T3 sequence (Q920D2 whole entry): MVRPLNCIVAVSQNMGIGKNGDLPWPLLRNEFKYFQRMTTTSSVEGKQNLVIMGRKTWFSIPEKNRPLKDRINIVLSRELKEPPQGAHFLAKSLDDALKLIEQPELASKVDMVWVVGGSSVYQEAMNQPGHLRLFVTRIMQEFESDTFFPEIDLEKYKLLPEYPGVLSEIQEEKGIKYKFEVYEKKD
Description: Inhibitory activity against Dihydrohydrofolate reductase (DHFR) of rat

SMILES	pIC50 [3]	also measured
COc1ccc(C#CCCCC(=O)O)cc1Cc1cnc(N)nc1N	–	pIC50 [1]: 8.11
COc1ccc(C#CCOc2ccccc2C(=O)O)cc1Cc1cnc(N)nc1N	–	Selectivity index [2]: 170
Nc1nc(N)c2nc(CCSc3ccccc3)cnc2n1	6.11	–
Cc1cccc(-c2nc3c(N)nc(N)nc3nc2N)c1	7.74	–
Nc1nc(N)c2nc(C(=O)c3ccccc3)c(-c3ccccc3)nc2n1	6.07	–
COc1ccc(OCCCC(=O)O)cc1Cc1cnc(N)nc1N	–	pIC50 [4]: 5.57
Nc1nc(N)c2nc(-c3ccccc3)c(-c3ccccc3)nc2n1	6.62	–
Nc1nc(N)c2c(CNc3cccc4c3CCCC4)c[nH]c2n1	5.96	–
COc1cc(Cc2cnc(N)nc2N)cc(OC)c1-n1cccc1	6.33	–
